Assay results from ChEMBL document CHEMBL3044820, “Evaluation of Benzenesulfonanilide Derivatives for the Control of Crucifers Clubroot” (1996).

Columns and labels:
Format in all cases: functional
Plasmodiophora brassicae [1] = assay: Fungicidal activity against clubroot disease causing Plasmodiophora brassicae infested Brassica campestris under greenhouse condition assessed as disease incidence at 2 kg a.i/ha treated to soil measured after 40 to 50 days
Plasmodiophora brassicae [2] = assay: Fungicidal activity against clubroot disease causing Plasmodiophora brassicae infested Brassica campestris under greenhouse condition assessed as disease incidence at 4 kg a.i/ha treated to soil measured after 40 to 50 days
Plasmodiophora brassicae [3] = assay: Fungicidal activity against clubroot disease causing Plasmodiophora brassicae infested Brassica campestris under greenhouse condition assessed as disease incidence at 0.5 kg a.i/ha treated to soil measured after 40 to 50 days

| SMILES | Activity (Plasmodiophora brassicae [1]) [%] | Activity (Plasmodiophora brassicae [2]) [%] | Activity (Plasmodiophora brassicae [3]) [%] |
| --- | --- | --- | --- |
| O=[N+]([O-])c1ccc(NS(=O)(=O)c2ccccc2)c(Cl)c1 | 0 | >91 | – |
| Cc1ccc(S(=O)(=O)Nc2ccc(F)cc2)cc1 | – | 0 | – |
| O=[N+]([O-])c1ccc(NS(=O)(=O)c2ccccc2[N+](=O)[O-])cc1 | 0 | 51 | – |
| O=[N+]([O-])c1ccc(NS(=O)(=O)c2ccc([N+](=O)[O-])cc2)cc1 | 0 | 0 | – |
| O=[N+]([O-])c1ccc(S(=O)(=O)Nc2ccc([N+](=O)[O-])cc2Cl)cc1 | 0 | 0 | – |
| Cc1ccc(S(=O)(=O)Nc2ccc([N+](=O)[O-])cc2Cl)cc1 | >91 | >91 | 26 |
| O=[N+]([O-])c1cccc(S(=O)(=O)Nc2ccc([N+](=O)[O-])cc2Cl)c1 | 26 | 71 | – |
| Cc1ccc(S(=O)(=O)Nc2c(C)cccc2[N+](=O)[O-])cc1[N+](=O)[O-] | 0 | 26 | – |
| Cc1ccc([N+](=O)[O-])cc1NS(=O)(=O)c1ccc(Cl)c([N+](=O)[O-])c1 | – | 0 | – |
| COc1ccc([N+](=O)[O-])cc1NS(=O)(=O)c1ccccc1[N+](=O)[O-] | – | 0 | – |
| COc1ccc([N+](=O)[O-])cc1NS(=O)(=O)c1ccc([N+](=O)[O-])cc1 | – | 0 | – |
| Cc1ccc(S(=O)(=O)Nc2ccc(Br)cc2)cc1 | – | 0 | – |
| Cc1cc([N+](=O)[O-])ccc1NS(=O)(=O)c1ccc(Cl)c(Cl)c1 | >91 | >91 | 0 |
| Cc1ccc(S(=O)(=O)Nc2ccc([N+](=O)[O-])cc2C)c(C)c1 | 0 | 0 | – |
| Cc1cc([N+](=O)[O-])ccc1NS(=O)(=O)c1ccc(Cl)c(C(F)(F)F)c1 | >91 | >91 | 26 |
| O=[N+]([O-])c1ccc(NS(=O)(=O)c2cccc(C(F)(F)F)c2)c(F)c1 | >91 | >91 | >91 |
| O=[N+]([O-])c1ccc(NS(=O)(=O)c2cc(Cl)c(Cl)cc2Cl)c(F)c1 | >91 | >91 | 71 |
| O=[N+]([O-])c1ccc(NS(=O)(=O)c2ccc(Cl)cc2)c(Cl)c1 | >91 | >91 | – |
| O=[N+]([O-])c1ccc(NS(=O)(=O)c2cccc(C(F)(F)F)c2)c(Cl)c1 | >91 | >91 | >91 |
| N#Cc1cccc(S(=O)(=O)Nc2ccc([N+](=O)[O-])cc2Cl)c1 | 0 | 0 | – |
| Cc1ccc([N+](=O)[O-])cc1S(=O)(=O)Nc1ccc([N+](=O)[O-])cc1Cl | >91 | >91 | 0 |
| Cc1ccc(C)c(S(=O)(=O)Nc2ccc([N+](=O)[O-])cc2Cl)c1 | >91 | >91 | 0 |
| Cc1ccc(S(=O)(=O)Nc2ccc([N+](=O)[O-])cc2Cl)c(C)c1 | >91 | >91 | 0 |
| O=[N+]([O-])c1ccc(NS(=O)(=O)c2cc(C(F)(F)F)ccc2Cl)c(Cl)c1 | >91 | >91 | 51 |
| O=[N+]([O-])c1ccc(NS(=O)(=O)c2ccc(Cl)c(Cl)c2)c(Cl)c1 | 26 | >91 | – |

| SMILES | Activity (Plasmodiophora brassicae [1]) [%] | Activity (Plasmodiophora brassicae [2]) [%] | Activity (Plasmodiophora brassicae [3]) [%] |
| --- | --- | --- | --- |
| O=[N+]([O-])c1ccc(NS(=O)(=O)c2cc(Cl)ccc2Cl)c(Cl)c1 | >91 | >91 | 26 |
| Cc1ccc(S(=O)(=O)Nc2ccc([N+](=O)[O-])cc2Cl)cc1[N+](=O)[O-] | >91 | >91 | 26 |
| O=[N+]([O-])c1ccc(NS(=O)(=O)c2cc(Cl)c(Cl)cc2Cl)c(Cl)c1 | >91 | >91 | 51 |
| O=[N+]([O-])c1cc(Cl)c(NS(=O)(=O)c2ccccc2)c(Cl)c1 | 0 | >91 | – |
| Cc1ccc([N+](=O)[O-])cc1S(=O)(=O)Nc1c(Cl)cc([N+](=O)[O-])cc1Cl | >91 | >91 | 26 |
| Cc1ccc(S(=O)(=O)Nc2ccc([N+](=O)[O-])cc2)cc1[N+](=O)[O-] | 0 | 26 | – |
| Cc1cc([N+](=O)[O-])ccc1NS(=O)(=O)c1ccc(C)c([N+](=O)[O-])c1 | 0 | 0 | – |
| Cc1cc([N+](=O)[O-])ccc1NS(=O)(=O)c1ccc([N+](=O)[O-])cc1 | 0 | 0 | – |
| Cc1cc([N+](=O)[O-])ccc1NS(=O)(=O)c1cccc(C#N)c1 | 0 | 0 | – |
| Cc1cc([N+](=O)[O-])ccc1NS(=O)(=O)c1ccc(Cl)cc1 | 0 | >91 | – |
| Cc1ccc(S(=O)(=O)Nc2ccc([N+](=O)[O-])cc2C)cc1 | 0 | 0 | – |
| Cc1ccc(C)c(S(=O)(=O)Nc2ccc([N+](=O)[O-])cc2C)c1 | 26 | >91 | – |
| O=S(=O)(Nc1ccc(C(F)(F)F)cc1)c1cccc(C(F)(F)F)c1 | – | 0 | – |
| O=S(=O)(Nc1ccc(C(F)(F)F)cc1)c1ccc(Cl)c(Cl)c1 | 26 | >91 | 0 |
| N#Cc1cccc(S(=O)(=O)Nc2ccc(C(F)(F)F)cc2)c1 | 0 | 26 | – |
| N#Cc1cccc(S(=O)(=O)Nc2ccc(Cl)cc2Cl)c1 | – | 0 | – |
| O=S(=O)(Nc1ccccc1Cl)c1cc(C(F)(F)F)ccc1Cl | – | 0 | – |
| O=S(=O)(Nc1ccc(C(F)(F)F)cc1Cl)c1cccc(C(F)(F)F)c1 | >91 | >91 | >91 |
| O=S(=O)(Nc1ccc(C(F)(F)F)cc1Cl)c1cc(C(F)(F)F)ccc1Cl | >91 | >91 | >91 |
| O=S(=O)(Nc1ccc(C(F)(F)F)cc1Cl)c1ccc(Cl)c(Cl)c1 | >91 | >91 | 51 |
| O=S(=O)(Nc1ccc(C(F)(F)F)cc1Cl)c1ccc(Cl)c(C(F)(F)F)c1 | >91 | >91 | 26 |
| O=S(=O)(Nc1ccc(C(F)(F)F)cc1Cl)c1ccc(Cl)cc1 | >91 | >91 | 26 |
| Cc1ccc(S(=O)(=O)Nc2ccc(C(F)(F)F)cc2Cl)cc1 | 0 | 51 | – |
| N#Cc1cccc(S(=O)(=O)Nc2ccc(C(F)(F)F)cc2Cl)c1 | 0 | 51 | – |
| O=S(=O)(Nc1cc(C(F)(F)F)ccc1Cl)c1cccc(C(F)(F)F)c1 | >91 | >91 | 0 |

| SMILES | Activity (Plasmodiophora brassicae [1]) [%] | Activity (Plasmodiophora brassicae [2]) [%] | Activity (Plasmodiophora brassicae [3]) [%] |
| --- | --- | --- | --- |
| N#Cc1ccc(NS(=O)(=O)c2cccc(C(F)(F)F)c2)cc1 | – | 0 | – |
| N#Cc1ccc(NS(=O)(=O)c2ccc(Cl)c(Cl)c2)cc1 | – | 0 | – |
| N#Cc1ccc(NS(=O)(=O)c2cccc(C(F)(F)F)c2)c(Cl)c1 | 51 | >91 | 0 |
| COC(=O)c1ccc(NS(=O)(=O)c2cccc(C(F)(F)F)c2)cc1 | – | 0 | – |
| CCOC(=O)c1ccc(NS(=O)(=O)c2cccc(C(F)(F)F)c2)cc1 | 0 | 0 | – |
| CCCOC(=O)c1ccc(NS(=O)(=O)c2cccc(C(F)(F)F)c2)cc1 | 0 | 0 | – |
| CCOC(=O)c1ccc(NS(=O)(=O)c2ccc(Cl)cc2)c(Cl)c1 | – | 0 | – |
| COC(=O)c1ccc(NS(=O)(=O)c2ccc(Cl)c(C(F)(F)F)c2)c(Cl)c1 | – | 0 | – |
| COC(=O)c1ccc(NS(=O)(=O)c2ccc(Cl)c(Cl)c2)c(Cl)c1 | – | 0 | – |
| CN(C)C(=O)c1ccc(NS(=O)(=O)c2cccc(C(F)(F)F)c2)cc1 | – | 0 | – |
| CN(C)C(=O)c1ccc(NS(=O)(=O)c2cccc(C(F)(F)F)c2)c(Cl)c1 | – | 0 | – |
| CN(C)C(=O)c1ccc(NS(=O)(=O)c2ccc(Cl)c(Cl)c2)c(Cl)c1 | – | 0 | – |
| O=[N+]([O-])c1cc(Cl)c(NS(=O)(=O)c2ccc(Cl)cc2)c(Cl)c1 | >91 | >91 | 0 |
| Cc1ccc(NS(=O)(=O)c2ccc(C)c([N+](=O)[O-])c2)c([N+](=O)[O-])c1 | – | 0 | – |
| Cc1ccc(NS(=O)(=O)c2ccc([N+](=O)[O-])cc2)c([N+](=O)[O-])c1 | – | 0 | – |
| Cc1ccc(S(=O)(=O)Nc2cccc([N+](=O)[O-])c2)cc1[N+](=O)[O-] | – | 0 | – |
| O=[N+]([O-])c1cccc(NS(=O)(=O)c2ccccc2[N+](=O)[O-])c1 | – | 0 | – |
| O=[N+]([O-])c1cccc(NS(=O)(=O)c2cccc([N+](=O)[O-])c2)c1 | – | 0 | – |
| Cc1ccc(S(=O)(=O)Nc2cc([N+](=O)[O-])ccc2Cl)cc1[N+](=O)[O-] | 0 | 26 | – |
| Cc1ccc(S(=O)(=O)Nc2ccc(F)c([N+](=O)[O-])c2)cc1[N+](=O)[O-] | 26 | 51 | – |
| Cc1ccc([N+](=O)[O-])cc1NS(=O)(=O)c1ccc(C)c([N+](=O)[O-])c1 | – | 0 | – |
| COc1ccc([N+](=O)[O-])cc1NS(=O)(=O)c1cccc([N+](=O)[O-])c1 | – | 0 | – |
| Cc1ccc([N+](=O)[O-])cc1NS(=O)(=O)c1ccc([N+](=O)[O-])cc1 | – | 0 | – |
| Cc1cc([N+](=O)[O-])ccc1NS(=O)(=O)c1cc(Cl)ccc1Cl | >91 | >91 | 51 |
| O=[N+]([O-])c1ccc(S(=O)(=O)Nc2cccc([N+](=O)[O-])c2)cc1 | – | 0 | – |
